This note sets out measurements from patent publication US20250163072A1, “MACROCYCLIC COMPOUNDS FOR THE TREATMENT OF CANCER” (Hoffmann-La Roche Inc., priority 2021, published 2025).

As usually defined, the IC50 is the concentration at which inhibition is half-maximal.

The structures appear in SMILES notation.

For data set [1], the system named is KRAS G12C in NCI-H358 cells. The data set is described as follows: pERK inhibition assay, NCI-H358. It counts as cell-based, human. The conditions noted are these: Homo sapiens, 4 hours incubation. The protocol: (§1) This assay is to measure the ability of test compounds in inhibiting the phosphorylation of ERK, the downstream signaling of KRAS G12C in NCI-H358 cells, KRAS G12D in AGS cells, and KRAS G12V in SW620. NCI-H358 (ATCC-CRL5807) cells, AGS (ATCC-CRL-1739) cells, SW620 (ATCC-CCL-227) cells were all grown and maintained using RPMI-1640 medium (Thermo Fisher Scientific) with 10% fetal bovine serum and 1% penicillin/streptomycin. On the day prior to compound addition, cells were plated in tissue culture-treated 96 well plates (Corning-3699) at a density of 30,000 cell/well, 20,000 cell/well, 30,000 cell/well for NCI-H358, AGS and SW620 respectively, and allowed for attachment overnight. Diluted compounds were then added in a final concentration of 0.5% DMSO. After 4 hours of incubation, the medium was removed, 100 μL of 4% formaldehyde was added, and the assay plates were incubated at room temperature for 20 minutes. The plates were then washed once with phosphate buffered saline (PBS), and permeabilized with 100 μL of chilled methanol for 10 minutes. Non-specific antibody binding to the plates was blocked using 50 μL 1×BSA blocking buffer (Thermo-37520, 10-fold dilution by Phosphate-Buffered Saline Tween (PBST) for at least 1 hour at room temperature. The amount of phosphor-ERK was determined using an antibody specific for phosphorylated form of ERK. Primary antibody (pERK, CST-4370, Cell Signaling Technology) was diluted 1:300 in blocking buffer, with 50 μL aliquoted to each well, and incubated overnight at 4° C. Cells were washed five times for 5 minutes with PBST. Secondary antibody (HRP-linked anti-rabbit IgG, CST-7074, Cell Signaling Technology) was diluted 1:1000 in blocking buffer, and 50 μL was added to each well and incubated 1-2 hours at room temperature. Cells were washed 5 times for 5 minutes with PBST, 100 μL TMB ELISA substrate (abcam-ab171523) were added and gently shake for 20 minutes. 50 μL stop solution (abcam-ab171529) were added, and then read the signal (OD450) by EnVision. IC50 was determined by fitting a 4-parameter sigmoidal concentration response model.

Data set [2] relates to KRAS G12D in AGS cells. The data set is described as follows: pERK inhibition assay, AGS. The conditions noted are these: Homo sapiens, 4 hours incubation. The class given is cell-based, human. The method, then:
as §1

In data set [3] the test system is KRAS G12V in SW620. The data set is described as follows: pERK inhibition assay, SW620. To be noted: Homo sapiens, SW-620, SW620 cells, 4 hours incubation. It counts as cell-based, human. The protocol:
as §1

Data set [4] concerns NCI-H358 cells. The data set is described as follows: Cell viability assay, NCI-H358. It counts as cell-based, human. To be noted: Homo sapiens, NCI-H358, 72 hours, Cell Counting Kit-8, read-out: G12C IC50. The protocol:
(§2) The purpose of this cellular assay was to determine the effects of test compounds on the proliferation of human cancer cell lines NCI-H358 (ATCC-CRL5807) cells, AGS (ATCC-CRL-1739) cells, SW620 (ATCC-CCL-227) over a 3-day treatment period by quantifying the amount of NADPH present at endpoint using Cell Counting Kit-8. Cells were seeded at 5,000 cells/well (NCI-H358), 2,000 cells/well (AGS) 2,000 cells/well (SW620) in 96-well assay plates (Corning-3699) and incubated overnight. On the day of the assay, diluted compounds were then added in a final concentration of 0.5% DMSO. After 72 hours incubation, a tenth of the volume of cell counting kit 8(Dnjindo-CK04) was added into each well. Read the signal (OD450 minus OD650) using EnVision after 2 hours incubation. IC50 was determined by fitting a 4-parameter sigmoidal concentration response model.
(Formazan colour is commonly taken as a measure of viable cells.)

Data set [5] concerns AGS cells. The experiment in a line: Cell viability assay, AGS. To be noted: Homo sapiens, 72 hours, Cell Counting Kit-8, read-out: G12D IC50. The class given is cell-based, human. The protocol: as §2
The test system of data set [6] is SW620 cells. The data set is described as follows: Cell viability assay, SW620. The class given is cell-based, human. To be noted: Homo sapiens, SW-620, SW620, 72 hours, Cell Counting Kit-8, read-out: G12V IC50. The protocol:
as §2

A short description of data set [7]: GSH reaction rates (inherent GSH reactivity). The class given is in vitro ADME. The protocol: Therefore Strategy to minimize the GSH metabolism is very critical. Short T1/2 in inherent GSH reaction indicated high GSH reaction rate. Thus T1/2 in inherent GSH reaction assay was determined for the screening of candidates. Reference compounds and compounds of this invention potentially could form conjugation with GSH either through halogenated moieties substitution reaction or direct Michael addition reaction. This test was therefore performed to check GSH reactivity of listed compounds. For inherent GSH reactivity determination, compounds at 1 μM were incubated at 37° C. with and without 5 mM GSH for 0, 0.5, 1, 2, 4 and 6 h in 100 mM potassium phosphate buffer at pH 7.4. At the end of the designated time points, samples were quenched with acetonitrile containing 10 mM N-ethylmaleimide and an internal standard. Quenched samples were centrifuged, and supernatants were analyzed by LC-MS/MS for compound quantification.

A short description of data set [8]: Human hepatocytes stability assay. To be noted: for CL_hep (Human): 1 μM compound, human hepatocytes 1×10^6 cells/mL; for Clearance Category: human hepatocytes. It counts as in vitro ADME. The method, then:
The hepatocyte stability assay measures the rate of disappearance of a compound from incubations with cryopreserved suspension hepatocytes from human. Positive controls, including Midazolam, Raloxifene and Dextromethorphan, are included in every experiment. Incubations consist of 1 μM tested compound and suspension of human hepatocytes (1×10^6 cells/mL) in supplemented Williams' E Medium with […] and 0.5% Penicillin-streptomycin. The hepatocyte suspension was incubated with intermittent shaking 900 rpm at 37° C., in a 5% CO2 incubator. The reaction was stopped by adding methanol containing internal standard (2 μM Tolbutamide) at 2, 10, 20, 40, 60 and 120 minutes after compound addition, depletion of the parent compound was monitored by LC-MS/MS analysis.

For `C#CC1(F)CCN(C(=O)N(C)[C@H](C(=O)N[C@H]2Cc3cc(O)cc(c3)-c3ccc4c(c3)c(c(-c3cccnc3[C@H](C)OC)n4CC)CC(C)(C)COC(=O)[C@@H]3CCCN(N3)C2=O)C(C)C)CC1` (atropisomer, axis not shown; (M)) [Example 16, N-[(1S)-1-[[(8S,14S)-22-ethyl-4-hydroxy-(21M)-21-[2-[(1S)-1-methoxyethyl]-3-pyridyl]-18,18-dimethyl-9,15-dioxo-16-oxa-10,22,28-triazapentacyclo[18.5.2.12,6.110,14.023,27]nonacosa-1(26),2,4,6(29),20,23(27),24-heptaen-8-yl]carbamoyl]-2-methyl-propyl]-4-ethynyl-4-fluoro-N-methyl-piperidine-1-carboxamide], the IC50 in data set [1] is 0.043 µM; in data set [2] it was 0.528 µM; in data set [3], 0.078 µM; in data set [4] it was 0.077 µM; in data set [5], 1.17 µM; in data set [6] it was 0.294 µM.

`CO[C@@H](C)c1ncccc1-c1c2c3cc(ccc3n1CC(F)(F)F)-c1csc(n1)C[C@H](NC(=O)[C@H](C(C)C)N(C)C(=O)[C@H]1CCN(C(=O)[C@H](F)Cl)C1)C(=O)N1CCC[C@H](N1)C(=O)OCC(C)(C)C2` (atropisomer, axis not shown; (M)) [Example 22, (3S)-1-[(2R)-2-chloro-2-fluoro-acetyl]-N-[(1S)-1-[[(7S,13S)-(20M)-20-[2-[(1S)-1-methoxyethyl]-3-pyridyl]-17,17-dimethyl-8,14-dioxo-21-(2,2,2-trifluoroethyl)-15-oxa-4-thia-9,21,27,28-tetrazapentacyclo[17.5.2.12,5.19,13.022,26]octacosa-1(25),2,5(28),19,22(26),23-hexaen-7-yl]carbamoyl]-2-methyl-propyl]-N-methyl-pyrrolidine-3-carboxamide]: the half-inhibitory concentration (IC50) in data set [1] came out at 0.055 µM; in data set [2] it was 0.199 µM; in data set [3] it was 0.102 µM; in data set [4], 0.0163 µM; in data set [5], 0.868 µM; in data set [6] it was 0.255 µM.

For `CO[C@@H](C)c1ncc(N2CCN(C)CC2)cc1-c1c2c3cc(ccc3n1CC(F)(F)F)-c1csc(n1)C[C@H](NC(=O)[C@H](C(C)C)N1CC[C@]3(CCN(C(=O)[C@H](F)Cl)C3)C1=O)C(=O)N1CCC[C@H](N1)C(=O)OCC(C)(C)C2` [Example 23, (2S)-2-[(5S)-7-[(2R)-2-chloro-2-fluoro-acetyl]-1-oxo-2,7-diazaspiro[4.4]nonan-2-yl]-N-[(7S,13S)-(20M)-20-[2-[(1S)-1-methoxyethyl]-5-(4-methylpiperazin-1-yl)-3-pyridyl]-17,17-dimethyl-8,14-dioxo-21-(2,2,2-trifluoroethyl)-15-oxa-4-thia-9,21,27,28-tetrazapentacyclo[17.5.2.12,5.19,13.022,26]octacosa-1(25),2,5(28),19,22(26),23-hexaen-7-yl]-3-methyl-butanamide], in data set [7] (1 μM compound, 5 mM GSH, 37° C., pH 7.4, 6 hr), the “Remaining at 6 hr in GSH (%)” value amounted to 95%. Moreover, in data set [7] (1 μM compound, 5 mM GSH, 37° C., potassium phosphate buffer pH 7.4), the “T1/2(hour) in GSH” value is given as “stable (If % depletion after 6 hour incubation is less than 20%, compounds were reported as stable)”. The concentration for half-maximal inhibition (IC50) in data set [1] is 0.002 µM; in data set [2], 0.018 µM; in data set [3], 0.008 µM; in data set [4], under 0.0006 µM; in data set [5], 3.41 µM; in data set [6], 0.015 µM. In addition, in data set [8], the “CL_hep (Human)” value turned out to be 7.9 mL/min/kg. For the same molecule, the “Clearance Category” value in data set [8] was “medium (16.24<CL_hep (mL/min/kg)>6.96 is medium clearance)”.

For the molecule `CCn1c(-c2cccnc2[C@H](C)OC)c2c3cc(ccc31)-c1cc(O)cc(c1)C[C@H](NC(=O)[C@H](C(C)C)N(C)C(=O)C1CCN(C(=O)C#CCN3CCOCC3)C1)C(=O)N1CCC[C@H](N1)C(=O)OCC(C)(C)C2` (stereo partly shown) [RM018, reference compound], the 50% inhibitory concentration (IC50) was 0.008 µM in data set [1]; over 10 µM in data set [2]; over 1 µM in data set [3]; 0.004 µM in data set [4]; over 10 µM in data set [5]; over 1 µM in data set [6].

Turning to `CCn1c(-c2cccnc2COC)c2c3cc(ccc31)-c1cc(O)cc(c1)C[C@H](NC(=O)[C@H](C(C)C)N(C)C(=O)C1CN(C(=O)[C@H](F)Cl)C1)C(=O)N1CCC[C@H](N1)C(=O)OCC(C)(C)C2` [RM461-A], in data set [7] (6 h, 1 μM, pH 7.4), the “Remaining at 6 hr in GSH (%)” value is reported as 100%. Moreover, the half-inhibitory concentration (IC50) in data set [1] was 0.049 µM; in data set [2], over 10 µM; in data set [3] it was 7.02 µM; in data set [4] it was 0.045 µM; in data set [5], 7.92 µM; in data set [6], 6.88 µM. For the same molecule, the “CL_hep (Human)” value in data set [8] amounted to 5.5 mL/min/kg. Besides, the “Clearance Category” value in data set [8] was “low (CL_hep (mL/min/kg)<6.96 is low clearance)”.
